# Reference: publication PMC8579695, “The Stringent Response Inhibits 70S Ribosome Formation in Staphylococcus aureus by Impeding GTPase-Ribosome Interactions” (mBio, 2021)
# Read-outs that look alike come from different tables or passages of the source.
# Experiments:
# [1] = biological target: RbgA (Staphylococcus aureus, UniProt A0A0H2XK72); assay: DRaCALA binding of 32P-labeled nucleotides to 6×His-tagged RbgA; settings: for Bmax, RbgA: Bmax values indicate the fraction bound
# Text: FIG 1 Nucleotide binding characteristics of RA-GTPases. (A) Schematic representation of the domain structure of Era, RsgA, RbgA, and HflX from S. aureus. The conserved GTPase domain (G domain) is colored in green, and accessory domains are shown. (B) Determination of binding affinities and Kd values for ^32P-labeled GTP, GDP, ppGpp, and pppGpp with purified recombinant 6×His-tagged RbgA using DRaCALA, as previously described ([36]). Each point is the mean average of at least three technical replicates, and error bars indicate standard deviations. (C) Binding assay (DRaCALA) of recombinant RbgA binding to ^32P-labeled GTP, ppGpp, and pppGpp in the presence of an excess of cold competitor (GTP, GDP, ppGpp, pppGpp, or ATP). All experiments were carried out in triplicate, with error bars representing standard deviations.
# The RA-GTPases RsgA, Era, RbgA, and HflX can bind to the guanosine nucleotides GTP, GDP, ppGpp, and pppGpp. Our previous work observed higher binding affinities for ppGpp over GTP, pointing toward a difference in binding between 5′ di- or triphosphate nucleotides ([27]). […] Furthermore, these previous experiments were performed using recombinant proteins fused to large MBP tags, which could impact binding affinity determination. To examine the nucleotide binding affinities of these RA-GTPases for GDP in comparison to ppGpp, pppGpp, and GTP, and in the absence of a large tag, we used a differential radial capillary action of ligand assay (DRaCALA) with recombinant RsgA, RbgA, Era, and HflX fused to a smaller 6× His tag (Fig. 1B; see also Fig. S2A to C in the supplemental material) ([36]). In each case, the affinities of 5′ diphosphate-containing GDP and ppGpp were similar in the low μM range and were 2- to 6-fold higher than the affinities of either GTP or pppGpp (Table 1).
# The synthesis of (p)ppGpp and differential radial capillary action of ligand assay (DRaCALA) binding and competition assays were performed as described previously ([27]), using recombinant, 6×His-tagged protein at the concentrations specified in the figure legends.
# [2] = biological target: HflX (Staphylococcus aureus, UniProt Q2FYY9); assay: GTPase activity assay of wild-type and Atto488-labeled HflX; type: biochemical; settings: 100 μM ppGpp, 1 μM GTP, 0.1 μM RA-GTPase, 0.1 μM 70S ribosomes, 37°C, 60 min
# HflX, sequence (Q2FYY9 entry or part of it): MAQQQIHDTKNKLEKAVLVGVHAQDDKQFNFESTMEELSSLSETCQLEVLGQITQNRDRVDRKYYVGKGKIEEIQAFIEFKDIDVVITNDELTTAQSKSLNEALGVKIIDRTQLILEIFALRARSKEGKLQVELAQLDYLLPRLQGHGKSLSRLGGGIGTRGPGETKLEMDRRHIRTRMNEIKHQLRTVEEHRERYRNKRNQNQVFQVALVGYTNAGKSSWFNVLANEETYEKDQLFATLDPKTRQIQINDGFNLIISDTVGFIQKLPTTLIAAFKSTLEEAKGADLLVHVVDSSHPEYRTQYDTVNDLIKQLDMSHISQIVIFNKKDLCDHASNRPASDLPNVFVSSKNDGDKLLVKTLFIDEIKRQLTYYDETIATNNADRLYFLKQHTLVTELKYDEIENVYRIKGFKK
# Text: To gain further insight into the binding mechanism and how (p)ppGpp reduces the association of RA-GTPases to the ribosomal subunits, we used a stopped-flow technique with fluorescent derivatives of the RA-GTPases (Fig. 3A). Structural predictions of all four RA-GTPases were built by homology modeling using available structures to assess the availability of suitable residues for fluorescence labeling (see Fig. S3A and B) ([43]). Both RbgA and HflX were amenable to covalent linkage to the fluorophore Atto-488 using maleimide chemistry with exposed cysteine residues. […]
# Supplementary file : FIG S3 Labeling sites and GTPase activity of Atto488-labelled proteins. […] Enzymatic activity was monitored by TLC and quantified by using ImageQuant. […]
# GTPase activity assays were performed as previously described ([10]). Briefly, the ability of proteins to hydrolyze GTP was determined by incubating 100 nM recombinant protein with 100 nM S. aureus 70S ribosomes, 1 μM GTP and 2.78 nM [α-^32P]GTP in 40 mM Tris (pH 7.5), 100 mM NaCl (100 mM KCl for RbgA), and 10 mM MgCl2 at 37°C for the indicated times. […] The radioactive spots were exposed to a BAS-MS imaging plate (Fujifilm) and visualized using an LA 7000 Typhoon PhosphorImager (GE Healthcare), and images were quantified using ImageQuant (GE Healthcare).
# RbgA, sequence (A0A0H2XK72 entry or part of it): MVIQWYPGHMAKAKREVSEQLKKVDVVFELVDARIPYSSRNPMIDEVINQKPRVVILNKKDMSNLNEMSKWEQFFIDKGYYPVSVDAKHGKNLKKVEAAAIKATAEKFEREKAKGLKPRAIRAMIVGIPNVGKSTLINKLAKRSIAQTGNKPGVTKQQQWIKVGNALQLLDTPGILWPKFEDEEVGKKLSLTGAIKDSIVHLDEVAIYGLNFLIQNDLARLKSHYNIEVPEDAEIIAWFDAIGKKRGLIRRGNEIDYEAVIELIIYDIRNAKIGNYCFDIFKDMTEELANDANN
SMILES,"Kd ([1]; mean ± SEM, 32P-labeled nucleotide, 6×His-tagged protein, read-out: Kd, RbgA)","Bmax, RbgA ([1]; mean ± SEM)",inhibition of GTPase activity of Atto488-labeled HflX [2],Kd [1]
Nc1nc2c(ncn2[C@@H]2O[C@H](COP(=O)(O)OP(=O)(O)O)[C@@H](OP(=O)(O)OP(=O)(O)O)[C@H]2O)c(=O)[nH]1 [ppGpp],2.9 ± 0.4 µM,0.6 ± 0.0,can still be inhibited,–
Nc1nc2c(ncn2[C@@H]2O[C@H](COP(=O)(O)OP(=O)(O)OP(=O)(O)O)[C@@H](OP(=O)(O)OP(=O)(O)O)[C@H]2O)c(=O)[nH]1 [pppGpp],–,0.4 ± 0.0,–,13.8 ± 4 µM
